According to ChEMBL document CHEMBL4477263, “Nature-inspired design of tetraindoles: Optimization of the core structure and evaluation of structure-activity relationship” (Bioorg Med Chem Lett, 2016):
Active and inactive are the calls of the source. The calls are words filed in the database; no cut-off is given here.

Columns and labels:
MDA-MB-231 [1] = assay: Antiproliferative activity against human MDA-MB-231 cells after 48 hrs by MTT assay; type: functional, cell-based; settings: MDA-MB-231, 48 h
HCT-116 = assay: Antiproliferative activity against human HCT116 cells after 48 hrs by MTT assay; type: functional, cell-based; settings: HCT-116, 48 h
MIA PaCa-2 [2] = assay: Antitumor activity against human MIAPaCa2 cells xenografted in NOD/SCID mouse assessed as tumor growth inhibition at 25 mg/kg, ip administered every 3.5 days per week for 5 weeks measured on day 38 post treatment relative to control; type: functional; settings: MIA PaCa-2, ip, read-out: TGI
NCI-H441 = assay: Antiproliferative activity against human H441 cells after 48 hrs by MTT assay; type: functional, cell-based; settings: NCI-H441, 48 h
MIA PaCa-2 [3] = assay: Cell cycle arrest in human MIAPaCa2 cells assessed as accumulation in G2/M phase at 0.6 uM after 36 hrs by propidium iodide staining based flow cytometry relative to control; type: functional
SK-HEP1 = assay: Antiproliferative activity against human SKHEP1 cells after 48 hrs by MTT assay; type: functional, cell-based; settings: SK-HEP1, 48 h
MIA PaCa-2 [4] = assay: Induction of apoptosis in human MIAPaCa2 cells assessed as late apoptotic cells at 0.6 uM after 36 hrs by Annexin V-FITC/propidium iodide staining based flow cytometry (reference value: 0.24%); type: functional
MIA PaCa-2 [5] = assay: Induction of apoptosis in human MIAPaCa2 cells assessed as live cells at 0.6 uM after 48 hrs by Annexin V-FITC/propidium iodide staining based flow cytometry (reference value: 98.4%); type: functional
MIA PaCa-2 [6] = assay: Cell cycle arrest in human MIAPaCa2 cells assessed as accumulation in S phase at 0.6 uM after 36 hrs by propidium iodide staining based flow cytometry (reference value: 38%); type: functional
MIA PaCa-2 [7] = assay: Induction of apoptosis in human MIAPaCa2 cells assessed as live cells at 0.6 uM after 24 hrs by Annexin V-FITC/propidium iodide staining based flow cytometry (reference value: 98.3%); type: functional
MIA PaCa-2 [8] = assay: Induction of apoptosis in human MIAPaCa2 cells assessed as live cells at 0.6 uM after 12 hrs by Annexin V-FITC/propidium iodide staining based flow cytometry (reference value: 98.9%); type: functional
MIA PaCa-2 [9] = assay: Cell cycle arrest in human MIAPaCa2 cells assessed as accumulation in G2/M phase at 0.6 uM after 48 hrs by propidium iodide staining based flow cytometry relative to control; type: functional
MIA PaCa-2 [10] = assay: Induction of apoptosis in human MIAPaCa2 cells assessed as live cells at 0.6 uM after 36 hrs by Annexin V-FITC/propidium iodide staining based flow cytometry (reference value: 98%); type: functional
NCI-H460 = assay: Antiproliferative activity against human H460 cells after 48 hrs by MTT assay; type: functional, cell-based; settings: NCI-H460, 48 h
MIA PaCa-2 [11] = assay: Induction of apoptosis in human MIAPaCa2 cells assessed as down regulation of Bak protein expression at 0.2 to 0.8 uM after 12 to 48 hrs by western immunoblot analysis; type: functional, cell-based
MIA PaCa-2 [12] = assay: Cell cycle arrest in human MIAPaCa2 cells assessed as accumulation in S phase at 0.6 uM after 24 hrs by propidium iodide staining based flow cytometry (reference value: 38%); type: functional
MIA PaCa-2 [13] = assay: Induction of apoptosis in human MIAPaCa2 cells assessed as early apoptotic cells at 0.6 uM after 12 hrs by Annexin V-FITC/propidium iodide staining based flow cytometry (reference value: 1%); type: functional
A549 = assay: Antiproliferative activity against human A549 cells after 48 hrs by MTT assay; type: functional, cell-based; settings: A549, 48 h
U-87 MG = assay: Antiproliferative activity against human U87 cells after 48 hrs by MTT assay; type: functional, cell-based, U-87MG ATCC
MIA PaCa-2 [14] = assay: Induction of apoptosis in human MIAPaCa2 cells assessed as early apoptotic cells at 0.6 uM after 36 hrs by Annexin V-FITC/propidium iodide staining based flow cytometry (reference value: 1.7%); type: functional
MIA PaCa-2 [15] = assay: Induction of apoptosis in human MIAPaCa2 cells assessed as necrotic cells at 0.6 uM after 12 hrs by Annexin V-FITC/propidium iodide staining based flow cytometry (reference value: 0.04%); type: functional
MIA PaCa-2 [16] = assay: Induction of apoptosis in human MIAPaCa2 cells assessed as down regulation of Bcl-2 protein expression at 0.2 to 0.8 uM after 12 to 48 hrs by western immunoblot analysis; type: functional, cell-based
MIA PaCa-2 [17] = assay: Cell cycle arrest in human MIAPaCa2 cells assessed as accumulation in G2/M phase at 0.6 uM after 24 hrs by propidium iodide staining based flow cytometry relative to control; type: functional
MIA PaCa-2 [18] = assay: Induction of apoptosis in human MIAPaCa2 cells assessed as upregulation of cleaved PARP protein expression at 0.2 to 0.8 uM after 12 to 48 hrs by western immunoblot analysis; type: functional, cell-based
MIA PaCa-2 [19] = assay: Induction of apoptosis in human MIAPaCa2 cells assessed as necrotic cells at 0.6 uM after 36 hrs by Annexin V-FITC/propidium iodide staining based flow cytometry (reference value: 0.06%); type: functional
MIA PaCa-2 [20] = assay: Induction of apoptosis in human MIAPaCa2 cells assessed as late apoptotic cells at 0.6 uM after 12 hrs by Annexin V-FITC/propidium iodide staining based flow cytometry (reference value: 0.07%); type: functional
MIA PaCa-2 [21] = assay: Induction of apoptosis in human MIAPaCa2 cells assessed as early apoptotic cells at 0.6 uM after 24 hrs by Annexin V-FITC/propidium iodide staining based flow cytometry (reference value: 1.49%); type: functional
[22] = Antiproliferative activity against human CL1-5 cells after 48 hrs by MTT assay; type: functional, cell-based; settings: CL1-5, 48 h
[23] = Toxicity in NOD/SCID mouse xenografted with human MIAPaCa2 cells assessed as body weight loss at 25 mg/kg, ip administered every 3.5 days per week for 5 weeks; type: organism-based; settings: in vivo
MIA PaCa-2 [24] = assay: Antiproliferative activity against human MIAPaCa2 cells after 48 hrs by MTT assay; type: functional, cell-based; settings: MIA PaCa-2, 48 h
MIA PaCa-2 [25] = assay: Cell cycle arrest in human MIAPaCa2 cells assessed as accumulation in S phase at 0.6 uM after 48 hrs by propidium iodide staining based flow cytometry (reference value: 19.7%); type: functional
MIA PaCa-2 [26] = assay: Induction of apoptosis in human MIAPaCa2 cells assessed as late apoptotic cells at 0.6 uM after 24 hrs by Annexin V-FITC/propidium iodide staining based flow cytometry (reference value: 0.16%); type: functional
MIA PaCa-2 [27] = assay: Induction of apoptosis in human MIAPaCa2 cells assessed as late apoptotic cells at 0.6 uM after 48 hrs by Annexin V-FITC/propidium iodide staining based flow cytometry (reference value: 0.21%); type: functional
Mahlavu = assay: Antiproliferative activity against human Mahlavu cells after 48 hrs by MTT assay; type: functional, cell-based
MIA PaCa-2 [28] = assay: Induction of apoptosis in human MIAPaCa2 cells assessed as necrotic cells at 0.6 uM after 48 hrs by Annexin V-FITC/propidium iodide staining based flow cytometry (reference value: 0.06%); type: functional
MIA PaCa-2 [29] = assay: Induction of apoptosis in human MIAPaCa2 cells assessed as necrotic cells at 0.6 uM after 24 hrs by Annexin V-FITC/propidium iodide staining based flow cytometry (reference value: 0.06%); type: functional
MIA PaCa-2 [30] = assay: Induction of apoptosis in human MIAPaCa2 cells assessed as early apoptotic cells at 0.6 uM after 48 hrs by Annexin V-FITC/propidium iodide staining based flow cytometry (reference value: 1.28%); type: functional
MDA-MB-231 [31] = assay: Antiproliferative activity against human MDA-MB-231 cells at 20 uM after 48 hrs by MTT assay; type: functional, cell-based

Oc1ccc2[nH]cc(C(c3ccc(-c4ccc(C(c5c[nH]c6ccc(O)cc56)c5c[nH]c6ccc(O)cc56)cc4)cc3)c3c[nH]c4ccc(O)cc34)c2c1
IC50 (MDA-MB-231 [1]): 10000 nM

Oc1ccc2[nH]cc(C(c3ccc4ccc(C(c5c[nH]c6ccc(O)cc56)c5c[nH]c6ccc(O)cc56)cc4c3)c3c[nH]c4ccc(O)cc34)c2c1
IC50 (MDA-MB-231 [1]): > 20000 nM

Oc1ccc2[nH]cc(C(Cc3ccc(CC(c4c[nH]c5ccc(O)cc45)c4c[nH]c5ccc(O)cc45)cc3)c3c[nH]c4ccc(O)cc34)c2c1
IC50 (MDA-MB-231 [1]): > 20000 nM

Oc1ccc2[nH]cc(C(c3c(Cl)c(Cl)c(C(c4c[nH]c5ccc(O)cc45)c4c[nH]c5ccc(O)cc45)c(Cl)c3Cl)c3c[nH]c4ccc(O)cc34)c2c1
IC50 (HCT-116): 1320 nM | inhibition in vivo at 25 mg/kg (MIA PaCa-2 [2]): 35% | IC50 (NCI-H441): 600 nM | Activity (MIA PaCa-2 [3]): 16% | IC50 (SK-HEP1): 470 nM | Activity (MIA PaCa-2 [4]): 0.96% | IC50 (MDA-MB-231 [1]): 560 nM | Activity (MIA PaCa-2 [5]): 93.3% | Activity (MIA PaCa-2 [6]): 51.4% | Activity (MIA PaCa-2 [7]): 97.6% | Activity (MIA PaCa-2 [8]): 98.6% | Activity (MIA PaCa-2 [9]): 20% | Activity (MIA PaCa-2 [10]): 95.6% | IC50 (NCI-H460): 830 nM | Activity (MIA PaCa-2 [11]): Active | Activity (MIA PaCa-2 [12]): 55.8% | Activity (MIA PaCa-2 [13]): 0.71% | IC50 (A549): 2440 nM | IC50 (U-87 MG): > 5000 nM | Activity (MIA PaCa-2 [14]): 3.21% | Activity (MIA PaCa-2 [15]): 0.09% | Activity (MIA PaCa-2 [16]): Active | Activity (MIA PaCa-2 [17]): 12% | Activity (MIA PaCa-2 [18]): Active | Activity (MIA PaCa-2 [19]): 0.2% | Activity (MIA PaCa-2 [20]): 0.58% | Activity (MIA PaCa-2 [21]): 2.1% | IC50 [22]: 630 nM | Activity [23]: Non-Toxic | IC50 (MIA PaCa-2 [24]): 190 nM | Activity (MIA PaCa-2 [25]): 46.4% | Activity (MIA PaCa-2 [26]): 0.3% | Activity (MIA PaCa-2 [27]): 1.18% | IC50 (Mahlavu): 3500 nM | Activity (MIA PaCa-2 [28]): 0.23% | Activity (MIA PaCa-2 [29]): 0.03% | Activity (MIA PaCa-2 [30]): 5.28%

Oc1ccc2[nH]cc(C(c3c[nH]c4ccc(O)cc34)c3c4ccccc4c(C(c4c[nH]c5ccc(O)cc45)c4c[nH]c5ccc(O)cc45)c4ccccc34)c2c1
IC50 (MDA-MB-231 [1]): 710 nM

Oc1ccc2[nH]cc(C(c3ccc4cc(C(c5c[nH]c6ccc(O)cc56)c5c[nH]c6ccc(O)cc56)ccc4c3)c3c[nH]c4ccc(O)cc34)c2c1
IC50 (MDA-MB-231 [1]): > 20000 nM

Cc1cc(C(c2c[nH]c3ccc(O)cc23)c2c[nH]c3ccc(O)cc23)c(C)cc1C(c1c[nH]c2ccc(O)cc12)c1c[nH]c2ccc(O)cc12
IC50 (MDA-MB-231 [1]): 8000 nM

Oc1ccc2[nH]cc(C(/C=C/c3ccc(/C=C/C(c4c[nH]c5ccc(O)cc45)c4c[nH]c5ccc(O)cc45)cc3)c3c[nH]c4ccc(O)cc34)c2c1
IC50 (MDA-MB-231 [1]): 2000 nM

Oc1ccc2[nH]cc(C(c3c[nH]c4ccc(O)cc34)c3cccc4c(C(c5c[nH]c6ccc(O)cc56)c5c[nH]c6ccc(O)cc56)cccc34)c2c1
IC50 (MDA-MB-231 [1]): 4000 nM

Cc1c(C)c(C(c2c[nH]c3ccc(O)cc23)c2c[nH]c3ccc(O)cc23)c(C)c(C)c1C(c1c[nH]c2ccc(O)cc12)c1c[nH]c2ccc(O)cc12
IC50 (MDA-MB-231 [1]): 1020 nM

Oc1ccc2[nH]cc(C(c3c[nH]c4ccc(O)cc34)c3c4c(c(C(c5c[nH]c6ccc(O)cc56)c5c[nH]c6ccc(O)cc56)c5ccccc35)CCCC4)c2c1
IC50 (MDA-MB-231 [1]): 1500 nM

Oc1ccc2[nH]cc(C(c3ccc(-c4cc(C(c5c[nH]c6ccc(O)cc56)c5c[nH]c6ccc(O)cc56)c(-c5ccc(C(c6c[nH]c7ccc(O)cc67)c6c[nH]c7ccc(O)cc67)cc5)cc4C(c4c[nH]c5ccc(O)cc45)c4c[nH]c5ccc(O)cc45)cc3)c3c[nH]c4ccc(O)cc34)c2c1
Activity (MDA-MB-231 [31]): inactive

Oc1ccc2[nH]cc(C(c3ccc4ccc5ccc(C(c6c[nH]c7ccc(O)cc67)c6c[nH]c7ccc(O)cc67)nc5c4n3)c3c[nH]c4ccc(O)cc34)c2c1
IC50 (MDA-MB-231 [1]): > 20000 nM

Oc1ccc2[nH]cc(C(c3cc(Br)c(C(c4c[nH]c5ccc(O)cc45)c4c[nH]c5ccc(O)cc45)cc3Br)c3c[nH]c4ccc(O)cc34)c2c1
IC50 (MDA-MB-231 [1]): 2450 nM

Oc1ccc2[nH]cc(C(c3c[nH]c4ccc(O)cc34)c3ccc(C(c4c[nH]c5ccc(O)cc45)c4c[nH]c5ccc(O)cc45)c4ccccc34)c2c1
IC50 (MDA-MB-231 [1]): 20000 nM

Oc1ccc2[nH]cc(C(/C=C/c3ccc(C(CC(c4c[nH]c5ccc(O)cc45)c4c[nH]c5ccc(O)cc45)c4c[nH]c5ccc(O)cc45)cc3)c3c[nH]c4ccc(O)cc34)c2c1 (stereo not drawn)
IC50 (MDA-MB-231 [1]): > 20000 nM

Oc1ccc2[nH]cc(C(c3c(F)c(F)c(C(c4c[nH]c5ccc(O)cc45)c4c[nH]c5ccc(O)cc45)c(F)c3F)c3c[nH]c4ccc(O)cc34)c2c1
IC50 (MDA-MB-231 [1]): 560 nM
